According to ChEMBL document CHEMBL1148503, “Evaluation of the eutomer of 4-{3-(4-chlorophenyl)-3-hydroxypyrrolidin-1-yl}-1-(4-fluorophenyl)butan-1-one, {(+)-SYA 09}, a pyrrolidine analog of haloperidol” (Bioorg Med Chem Lett, 2006):

How the values were obtained:
[1] = molecular target: T1, Alpha-1A adrenergic receptor (Homo sapiens, UniProt P35348); test: Binding affinity to human cloned adrenergic alpha-1A receptor by radioligand binding assay
T1 sequence (P35348 whole entry): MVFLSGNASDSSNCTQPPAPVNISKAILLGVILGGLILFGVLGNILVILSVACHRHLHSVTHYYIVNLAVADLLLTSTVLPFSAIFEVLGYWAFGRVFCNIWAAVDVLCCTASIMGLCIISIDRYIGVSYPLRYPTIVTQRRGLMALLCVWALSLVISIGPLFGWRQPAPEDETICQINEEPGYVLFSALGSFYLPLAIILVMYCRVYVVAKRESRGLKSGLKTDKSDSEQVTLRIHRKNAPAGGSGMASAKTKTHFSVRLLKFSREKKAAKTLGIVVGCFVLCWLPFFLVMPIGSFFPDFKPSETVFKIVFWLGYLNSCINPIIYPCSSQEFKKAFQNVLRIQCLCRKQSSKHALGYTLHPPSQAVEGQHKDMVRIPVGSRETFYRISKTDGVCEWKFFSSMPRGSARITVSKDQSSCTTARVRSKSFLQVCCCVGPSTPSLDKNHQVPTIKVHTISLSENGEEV

[2] = molecular target: T2, Alpha-1B adrenergic receptor (Homo sapiens, UniProt P35368); test: Binding affinity to human cloned adrenergic alpha-1B receptor by radioligand binding assay
T2 sequence (P35368 whole entry): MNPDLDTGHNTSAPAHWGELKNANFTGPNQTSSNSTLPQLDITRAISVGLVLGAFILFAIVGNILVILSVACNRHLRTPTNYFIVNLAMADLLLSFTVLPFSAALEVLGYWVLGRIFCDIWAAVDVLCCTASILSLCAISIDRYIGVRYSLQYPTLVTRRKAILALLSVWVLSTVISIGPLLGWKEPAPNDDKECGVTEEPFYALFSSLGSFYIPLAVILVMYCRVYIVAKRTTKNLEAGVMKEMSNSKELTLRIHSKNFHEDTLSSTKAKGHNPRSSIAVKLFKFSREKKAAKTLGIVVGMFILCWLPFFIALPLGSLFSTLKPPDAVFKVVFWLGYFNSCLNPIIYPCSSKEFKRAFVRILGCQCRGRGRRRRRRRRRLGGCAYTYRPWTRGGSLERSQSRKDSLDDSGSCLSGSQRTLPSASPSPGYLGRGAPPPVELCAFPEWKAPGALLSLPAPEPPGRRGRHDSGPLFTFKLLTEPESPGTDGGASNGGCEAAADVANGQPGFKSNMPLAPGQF

[3] = molecular target: T3, Alpha-2A adrenergic receptor (Homo sapiens, UniProt P08913); test: Binding affinity to human cloned adrenergic alpha-2A receptor by radioligand binding assay
T3 sequence (P08913 whole entry): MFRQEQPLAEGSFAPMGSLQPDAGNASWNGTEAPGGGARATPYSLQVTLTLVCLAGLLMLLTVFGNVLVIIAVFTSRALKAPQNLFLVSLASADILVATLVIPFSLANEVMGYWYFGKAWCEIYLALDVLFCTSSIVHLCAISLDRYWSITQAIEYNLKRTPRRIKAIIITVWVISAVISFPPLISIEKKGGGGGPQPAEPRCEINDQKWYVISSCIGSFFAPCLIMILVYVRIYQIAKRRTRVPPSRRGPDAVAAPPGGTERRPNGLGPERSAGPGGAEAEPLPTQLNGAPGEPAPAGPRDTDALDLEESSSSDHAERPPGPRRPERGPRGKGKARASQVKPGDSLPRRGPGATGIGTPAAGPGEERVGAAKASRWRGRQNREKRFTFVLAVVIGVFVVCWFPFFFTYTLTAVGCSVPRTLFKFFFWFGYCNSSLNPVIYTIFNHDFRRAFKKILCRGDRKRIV

[4] = molecular target: T4, Alpha-2B adrenergic receptor (Homo sapiens, UniProt P18089); test: Binding affinity to human cloned adrenergic alpha-2B receptor by radioligand binding assay
T4 sequence (P18089 whole entry): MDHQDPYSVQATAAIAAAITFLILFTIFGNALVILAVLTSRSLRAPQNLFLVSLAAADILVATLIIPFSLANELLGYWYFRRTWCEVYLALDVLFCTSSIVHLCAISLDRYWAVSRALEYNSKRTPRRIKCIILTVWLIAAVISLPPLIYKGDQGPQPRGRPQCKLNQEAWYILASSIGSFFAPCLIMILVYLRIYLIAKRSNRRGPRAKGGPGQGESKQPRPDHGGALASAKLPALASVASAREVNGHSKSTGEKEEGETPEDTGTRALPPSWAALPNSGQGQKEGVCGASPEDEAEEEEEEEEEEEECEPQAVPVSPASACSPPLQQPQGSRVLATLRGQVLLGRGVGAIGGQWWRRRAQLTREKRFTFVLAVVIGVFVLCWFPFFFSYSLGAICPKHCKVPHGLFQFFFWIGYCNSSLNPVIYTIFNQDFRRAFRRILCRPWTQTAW

[5] = molecular target: T5, Alpha-2C adrenergic receptor (Homo sapiens, UniProt P18825); test: Binding affinity to human cloned adrenergic alpha-2C receptor by radioligand binding assay
T5 sequence (P18825 whole entry): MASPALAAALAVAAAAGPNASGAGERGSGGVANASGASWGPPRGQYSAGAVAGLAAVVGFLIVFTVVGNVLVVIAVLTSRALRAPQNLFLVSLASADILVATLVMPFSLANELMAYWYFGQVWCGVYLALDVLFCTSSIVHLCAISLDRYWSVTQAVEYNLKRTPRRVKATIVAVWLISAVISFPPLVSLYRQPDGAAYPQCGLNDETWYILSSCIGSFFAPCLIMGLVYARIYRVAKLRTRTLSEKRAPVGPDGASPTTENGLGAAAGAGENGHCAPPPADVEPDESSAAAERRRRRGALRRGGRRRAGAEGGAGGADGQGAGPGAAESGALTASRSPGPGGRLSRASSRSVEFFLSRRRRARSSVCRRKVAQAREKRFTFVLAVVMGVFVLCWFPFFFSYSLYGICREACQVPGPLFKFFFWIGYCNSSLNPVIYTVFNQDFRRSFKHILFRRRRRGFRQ

Mus musculus = test: Inhibition of apomorphine-induced climbing in ip dosed Swiss Webster mouse; type: functional
[6] = molecular target: T6, 5-hydroxytryptamine receptor 1A (Homo sapiens, UniProt P08908); test: Binding affinity to human cloned 5HT1A receptor by radioligand binding assay
T6 sequence (P08908 whole entry): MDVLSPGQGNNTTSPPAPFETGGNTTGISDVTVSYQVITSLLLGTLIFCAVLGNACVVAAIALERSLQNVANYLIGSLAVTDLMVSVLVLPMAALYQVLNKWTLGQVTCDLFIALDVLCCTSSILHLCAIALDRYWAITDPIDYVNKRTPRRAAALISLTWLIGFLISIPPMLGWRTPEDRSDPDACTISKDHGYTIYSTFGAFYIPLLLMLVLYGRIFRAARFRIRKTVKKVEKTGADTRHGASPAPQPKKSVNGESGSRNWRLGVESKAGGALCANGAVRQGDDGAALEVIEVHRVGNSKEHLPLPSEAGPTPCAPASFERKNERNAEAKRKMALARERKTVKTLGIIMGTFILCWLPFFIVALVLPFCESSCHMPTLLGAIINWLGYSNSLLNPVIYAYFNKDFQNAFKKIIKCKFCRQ

[7] = molecular target: T7, 5-hydroxytryptamine receptor 2C (Homo sapiens, UniProt P28335); test: Binding affinity to human cloned 5HT2C receptor by radioligand binding assay
T7 sequence (P28335 whole entry): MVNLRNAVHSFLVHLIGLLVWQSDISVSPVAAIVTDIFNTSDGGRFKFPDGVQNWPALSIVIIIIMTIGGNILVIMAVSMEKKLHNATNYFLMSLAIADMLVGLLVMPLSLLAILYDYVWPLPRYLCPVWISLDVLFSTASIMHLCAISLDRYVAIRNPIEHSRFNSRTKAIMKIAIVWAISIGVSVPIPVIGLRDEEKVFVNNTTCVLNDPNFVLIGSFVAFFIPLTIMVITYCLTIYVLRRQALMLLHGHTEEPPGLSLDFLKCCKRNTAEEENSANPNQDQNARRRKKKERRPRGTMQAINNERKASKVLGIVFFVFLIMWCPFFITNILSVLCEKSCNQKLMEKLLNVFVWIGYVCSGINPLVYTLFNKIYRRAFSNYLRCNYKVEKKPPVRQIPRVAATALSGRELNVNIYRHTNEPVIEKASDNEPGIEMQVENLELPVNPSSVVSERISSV

Compound	Ki [1] [nM]	Ki [2] [nM]	Ki [3] [nM]	Ki [4] [nM]	Ki [5] [nM]	ED50 (Mus musculus) [mg/kg]	Ki [6] [nM]	Ki [7] [nM]
O=C(CCCN1C2CCC1CC(O)(c1ccc(Cl)cc1)C2)c1ccc(F)cc1 (stereo unspecified)	39.3	42.7	2830	516	143			
O=C(CCCN1CCC(O)(c2ccc(Cl)cc2)C1)c1ccc(F)cc1 (single isomer, unassigned; (+))	115	102				1.6	722	3600
O=C(CCCN1CCC(O)(c2ccc(Cl)cc2)C1)c1ccc(F)cc1 (stereo in doubt; 2b)	34	41.7					832	1250
CN1CCN(C2=Nc3cc(Cl)ccc3Nc3ccccc32)CC1 [CLOZAPINE]						5.54		
O=C(CCCN1CCC(O)(c2ccc(Cl)cc2)CC1)c1ccc(F)cc1 [HALOPERIDOL]						0.007		
